Experimental data published in US4001218A, “Penicillins” (Bayer Aktiengesellschaft, priority 1972, dated 1977).

Key:
E. coli 14 = assay type: cell-based; details: for MIC: E. coli 14, 24 hours, 37°C; for Activity against E. coli 14 (minimum inhibitory concentration): 24 hours' incubation
Enterococcus 9790 = assay: MIC, test tube series dilution test, Enterococcus 9790; assay type: cell-based; details: 24 hours, 37°C
Staph. aureus 133 = assay type: cell-based, Staphylococcus aureus; details: for MIC: Staph. aureus 133, 24 hours, 37°C; for Activity against Staph. aureus 133 (minimum inhibitory concentration): 24 hours' incubation
E. coli C 165 = assay: MIC, test tube series dilution test, E. coli C 165; assay type: cell-based; details: 24 hours, 37°C
Psdm. aerug. Walter = assay: MIC, test tube series dilution test, Psdm. aerug. Walter; assay type: cell-based, Pseudomonas aeruginosa; details: for MIC: Psdm. aerug. Walter, 24 hours, 37°C; for Activity against Psdm. aerug. Walter (minimum inhibitory concentration): 24 hours' incubation
Staph. aureus 1756 = assay: MIC, test tube series dilution test, Staph. aureus 1756; assay type: cell-based, Staphylococcus aureus; details: for MIC: Staph. aureus 1756, 24 hours, 37°C
E. coli A 261 = assay: MIC, test tube series dilution test, E. coli A 261; assay type: cell-based; details: 24 hours, 37°C
Proteus vulg. 1017 = assay type: cell-based, Proteus vulgaris; details: for MIC: Proteus 1017, 24 hours, 37°C; for Activity against Proteus vulg. 1017 (minimum inhibitory concentration): 24 hours' incubation
Klebsiella 63 = assay: MIC, test tube series dilution test, Klebsiella 63; assay type: cell-based; details: for Activity against Klebs. 63 (minimum inhibitory concentration): 24 hours' incubation; for MIC: Klebsiella 63, 24 hours, 37°C
Psdm. aerug. F 41 = assay: MIC, test tube series dilution test, Psdm. aerug. F 41; assay type: cell-based, Pseudomonas aeruginosa; details: for Activity against Psdm. aerug. F 41 (minimum inhibitory concentration): 24 hours' incubation; for MIC: Psdm. aerug. F 41, 24 hours, 37°C
Proteus morg. 932 = assay: MIC, test tube series dilution test, Proteus morg. 932; assay type: cell-based; details: 24 hours, 37°C
Klebsiella K 10 = assay: MIC, test tube series dilution test, Klebsiella K 10; assay type: cell-based; details: 24 hours, 37°C

Row | SMILES | MIC (E. coli 14) | MIC (Enterococcus 9790) | MIC (Staph. aureus 133) [U/ml] | MIC (Psdm. aerug. Walter) | MIC (E. coli A 261) | MIC (Proteus morg. 932) [U/ml] | also measured
1 | CC1(C)S[C@@H]2[C@H](NC(=O)[C@H](NC(=O)c3ccc(NC(=O)Nc4ccc(F)cc4)cc3)c3ccccc3)C(=O)N2[C@H]1C(=O)O [Example 46] | < 1 U/ml | ~ 4 U/ml | < 1 |  |  |  | MIC (E. coli C 165): ~ 4 U/ml
2 | CC1(C)S[C@@H]2[C@H](NC(=O)[C@H](NC(=O)c3ccc(NC(=O)c4cc(Cl)cc(Cl)c4)cc3)c3ccccc3)C(=O)N2[C@H]1C(=O)O [Example 20] | < 1 U/ml | ~ 4 U/ml | < 1 | ~ 4 U/ml | ~ 256 U/ml |  | MIC (Staph. aureus 1756): ~ 4 U/ml; MIC (Proteus vulg. 1017): ~ 4 U/ml
3 | COc1cc(C(=O)Nc2ccc(C=CC(=O)N[C@@H](C(=O)N[C@@H]3C(=O)N4[C@@H]3SC(C)(C)[C@@H]4C(=O)O)c3ccccc3)cc2)cc(OC)c1OC [Example 79, sodium D(-)-α-[4-(3,4,5-trimethoxybenzoylamino-cinnamoylamino)]-benzylpenicillin] |  |  |  |  |  |  | Activity against E. coli 14 (minimum inhibitory concentration) (E. coli 14): 1-2 U/ml; Activity against Klebs. 63 (minimum inhibitory concentration) (Klebsiella 63): 32-64 U/ml; Activity against Staph. aureus 133 (minimum inhibitory concentration) (Staph. aureus 133): < 1 U/ml; Activity against Psdm. aerug. F 41 (minimum inhibitory concentration) (Psdm. aerug. F 41): 8-16 U/ml; Activity against Proteus vulg. 1017 (minimum inhibitory concentration) (Proteus vulg. 1017): 128-256 U/ml
4 | CNc1ccc(C(=O)N[C@@H](C(=O)N[C@@H]2C(=O)N3[C@@H]2SC(C)(C)[C@@H]3C(=O)O)c2ccccc2)cc1 [Example 43] | ~ 16 U/ml |  | < 1 | > 256 U/ml | > 256 U/ml | > 256 | 
5 | CNC(=O)Nc1ccc(C(=O)N[C@@H](C(=O)N[C@@H]2C(=O)N3[C@@H]2SC(C)(C)[C@@H]3C(=O)O)c2ccccc2)cc1 [Example 44] | ~ 8 U/ml | 4 U/ml | < 1 |  |  |  | MIC (Klebsiella 63): 128 U/ml; MIC (Staph. aureus 1756): 64 U/ml; MIC (E. coli C 165): 16 U/ml; MIC (Psdm. aerug. F 41): ~ 64 U/ml; MIC (Klebsiella K 10): 256 U/ml; MIC (Proteus vulg. 1017): > 256 U/ml
6 | CC1(C)S[C@@H]2[C@H](NC(=O)[C@H](NC(=O)c3ccccc3NC(=O)C3CCC3)c3ccccc3)C(=O)N2[C@H]1C(=O)O [Example 50] |  |  | < 1 |  |  |  | MIC (Klebsiella K 10): > 256 U/ml
7 | CC1(C)S[C@@H]2[C@H](NC(=O)[C@H](NC(=O)c3ccc(N)cc3)c3ccccc3)C(=O)N2[C@H]1C(=O)O [Example 34, sodium D(-)-α-(4-amino-benzoylamino)-benzylpenicillin] | ~ 16 U/ml | ~ 4 U/ml | < 1 |  | > 256 U/ml | > 256 | MIC (Klebsiella 63): 128 U/ml; MIC (Staph. aureus 1756): 32 U/ml; MIC (E. coli C 165): 32 U/ml; MIC (Psdm. aerug. F 41): 64 U/ml; MIC (Klebsiella K 10): 256 U/ml; MIC (Proteus vulg. 1017): 128 U/ml
8 | CC1(C)S[C@@H]2[C@H](NC(=O)[C@H](NC(=O)c3ccc(NC(=O)C4(O)CC4)cc3)c3ccccc3)C(=O)N2[C@H]1C(=O)O [Example 2, sodium D(-)-α-(4-cyclopropanol-1-carbonyl-aminobenzoylamino)-benzylpenicillin] |  |  | < 1 | > 256 U/ml | > 256 U/ml | > 256 | 
9 | CC1(C)S[C@@H]2[C@H](NC(=O)[C@H](NC(=O)c3ccccc3NC(=O)C3CC3)c3ccccc3)C(=O)N2[C@H]1C(=O)O [Example 49] |  |  | < 1 |  |  |  | MIC (Klebsiella 63): > 256 U/ml; MIC (Psdm. aerug. F 41): < 256 U/ml; MIC (Klebsiella K 10): > 256 U/ml
10 | CC1(C)S[C@@H]2[C@H](NC(=O)[C@H](NC(=O)CSc3ccc(NC=O)cc3)c3ccccc3)C(=O)N2[C@H]1C(=O)O [Example 59] | ~ 4 U/ml |  | < 1 | > 256 U/ml | > 256 U/ml | > 256 | MIC (Psdm. aerug. F 41): > 256 U/ml
11 | CC1(C)S[C@@H]2[C@H](NC(=O)[C@H](NC(=O)c3ccc(NC(=O)C4CCCC4)cc3O)c3ccccc3)C(=O)N2[C@H]1C(=O)O [Example 77, sodium D(-)-α-(4-cyclopentanecarbonylamino-2-hydroxybenzoylamino)benzylpenicillin] |  |  |  |  |  |  | Activity against E. coli 14 (minimum inhibitory concentration) (E. coli 14): 2-4 U/ml; Activity against Psdm. aerug. Walter (minimum inhibitory concentration) (Psdm. aerug. Walter): 8-16 U/ml; Activity against Klebs. 63 (minimum inhibitory concentration) (Klebsiella 63): 32-64 U/ml; Activity against Staph. aureus 1756 (minimum inhibitory concentration) (Staph. aureus 1756; 24 hours' incubation): 32-64 U/ml
12 | CC1(C)S[C@@H]2[C@H](NC(=O)[C@H](NC(=O)CSc3ccc(NC(=O)C4CC4)cc3)c3ccccc3)C(=O)N2[C@H]1C(=O)O [Example 60] |  |  |  |  | > 256 U/ml |  | MIC (Psdm. aerug. F 41): ~ 256 U/ml; MIC (Proteus vulg. 1017): ~ 4 U/ml
13 | CC1(C)S[C@@H]2[C@H](NC(=O)[C@H](NC(=O)c3ccc(NC(=O)c4ccc(S(C)(=O)=O)cc4)cc3)c3ccccc3)C(=O)N2[C@H]1C(=O)O [Example 80, sodium D(-)-α-[4-(p-methylsulphonylbenzoylamino)-benzoylamino]-benzylpenicillin] |  |  |  |  |  |  | Activity against E. coli 14 (minimum inhibitory concentration) (E. coli 14): 4-8 U/ml; Activity against Klebs. 63 (minimum inhibitory concentration) (Klebsiella 63): 32-64 U/ml; Activity against Staph. aureus 133 (minimum inhibitory concentration) (Staph. aureus 133): < 1 U/ml; Activity against Psdm. aerug. F 41 (minimum inhibitory concentration) (Psdm. aerug. F 41): 32-64 U/ml; Activity against Proteus vulg. 1017 (minimum inhibitory concentration) (Proteus vulg. 1017): 128-256 U/ml
14 | CC(C)(CN=[N+]=[N-])C(=O)Nc1ccc(C(=O)N[C@@H](C(=O)N[C@@H]2C(=O)N3[C@@H]2SC(C)(C)[C@@H]3C(=O)O)c2ccccc2)cc1 [Example 39] |  |  | < 1 |  | > 256 U/ml |  | MIC (Staph. aureus 1756): ~ 64 U/ml
15 | CC1(C)S[C@@H]2[C@H](NC(=O)[C@H](NC(=O)CSc3ccc(NC(=O)C4CCC4)cc3)c3ccccc3)C(=O)N2[C@H]1C(=O)O [Example 61] |  | ~ 16 U/ml | < 1 | > 256 U/ml | > 256 U/ml | > 256 | 
16 | CC1(C)S[C@@H]2[C@H](NC(=O)[C@H](NC(=O)Cc3ccc(NC(=O)C4CCC4)cc3)c3ccccc3)C(=O)N2[C@H]1C(=O)O [Example 76, sodium D(-)-α-[(4-cyclobutanecarbonylaminophenyl)-acetamido]-benzylpenicillin] | < 4 U/ml | ~ 16 U/ml | < 1 | > 256 U/ml | > 256 U/ml | > 256 | MIC (Psdm. aerug. F 41): > 256 U/ml
17 | CC1(C)S[C@@H]2[C@H](NC(=O)[C@H](NC(=O)c3ccc(NC(=O)C4CCCC4)cc3)c3ccc(O)cc3)C(=O)N2[C@H]1C(=O)O [Example 81] |  |  |  |  |  |  | Activity against E. coli 14 (minimum inhibitory concentration) (E. coli 14): 4-8 U/ml; Activity against Klebs. 63 (minimum inhibitory concentration) (Klebsiella 63): 128-256 U/ml; Activity against Staph. aureus 133 (minimum inhibitory concentration) (Staph. aureus 133): < 1 U/ml; Activity against Psdm. aerug. F 41 (minimum inhibitory concentration) (Psdm. aerug. F 41): 32-64 U/ml; Activity against Proteus vulg. 1017 (minimum inhibitory concentration) (Proteus vulg. 1017): > 256 U/ml
18 | CC1(C)S[C@@H]2[C@H](NC(=O)[C@H](NC(=O)CNC(=O)c3ccc(N)cc3)c3ccccc3)C(=O)N2[C@H]1C(=O)O [Example 70] |  |  | < 1 | > 256 U/ml | > 256 U/ml | > 256 | 
19 | COCC(=O)Nc1ccc(C(=O)N[C@@H](C(=O)N[C@@H]2C(=O)N3[C@@H]2SC(C)(C)[C@@H]3C(=O)O)c2ccccc2)cc1 [Example 42] |  | ~ 4 U/ml | < 1 |  |  |  | MIC (Klebsiella K 10): > 256 U/ml; MIC (Proteus vulg. 1017): > 256 U/ml
20 | COc1cc(C=CC(=O)Nc2ccc(C(=O)N[C@@H](C(=O)N[C@@H]3C(=O)N4[C@@H]3SC(C)(C)[C@@H]4C(=O)O)c3ccccc3)cc2)cc(OC)c1OC [Example 78, sodium D(-)-α-[4-(3,4,5-trimethoxycinnamoylamino-benzoylamino)]-benzylpenicillin] |  |  |  |  |  |  | Activity against E. coli 14 (minimum inhibitory concentration) (E. coli 14): 2-4 U/ml; Activity against Psdm. aerug. Walter (minimum inhibitory concentration) (Psdm. aerug. Walter): 32-64 U/ml; Activity against Klebs. 63 (minimum inhibitory concentration) (Klebsiella 63): 32-64 U/ml; Activity against Proteus vulg. 1017 (minimum inhibitory concentration) (Proteus vulg. 1017): 128-256 U/ml
21 | CC1(C)S[C@@H]2[C@H](NC(=O)[C@H](NC(=O)c3ccc(NC=O)c(NC=O)c3)c3ccccc3)C(=O)N2[C@H]1C(=O)O [Example 74] |  |  | < 1 |  |  |  | MIC (Klebsiella K 10): > 256 U/ml
